{"source": "ChEMBL document CHEMBL1131863", "about": "“Synthesis and antibacterial activity of HMR 3647 a new ketolide highly potent against erythromycin-resistant and susceptible pathogens” (1999)", "type_in_all_cases": "functional", "key": {"Staphylococcus aureus [1]": {"test_system": "Staphylococcus aureus", "assay": "The compound was tested in vitro for antibacterial activity against erythromycin susceptible Staphylococcus aureus 011UC4."}, "Haemophilus influenzae [2]": {"test_system": "Haemophilus influenzae", "assay": "The compound was tested in vitro for antibacterial activity against Haemophilus influenza 351HT3."}, "Streptococcus pyogenes [3]": {"test_system": "Streptococcus pyogenes", "assay": "The compound was tested in vitro for antibacterial activity against erythromycin susceptible Streptococcus pyogenes 02A1UC1."}, "Streptococcus pneumoniae [4]": {"test_system": "Streptococcus pneumoniae", "assay": "The compound was tested in vitro for antibacterial activity against erythromycin susceptible Streptococcus pneumoniae 032UC1."}, "Streptococcus pneumoniae [5]": {"test_system": "Streptococcus pneumoniae", "assay": "The compound was tested in vitro for antibacterial activity against constitutively erythromycin resistant Streptococcus pneumoniae 030CR18c."}, "Streptococcus pneumoniae [6]": {"test_system": "Streptococcus pneumoniae", "assay": "The compound was tested in vitro for antibacterial activity against constitutively erythromycin resistant Streptococcus pneumoniae 030PW23c."}, "Escherichia coli [7]": {"test_system": "Escherichia coli", "assay": "The compound was tested in vitro for antibacterial activity against Escherichia coli 250 UCS."}, "Staphylococcus aureus [8]": {"test_system": "Staphylococcus aureus", "assay": "The compound was tested in vitro for antibacterial activity against inducibly erythromycin resistant Staphylococcus aureus 011GO25i."}, "Streptococcus pneumoniae [9]": {"test_system": "Streptococcus pneumoniae", "assay": "The compound was tested in vitro for antibacterial activity against inducibly erythromycin resistant Streptococcus pneumoniae 030J5i."}, "Streptococcus pneumoniae [10]": {"test_system": "Streptococcus pneumoniae", "assay": "The compound was tested in vitro for antibacterial activity against constitutively erythromycin resistant Streptococcus pneumoniae 030SJ1."}, "Staphylococcus aureus [11]": {"test_system": "Staphylococcus aureus", "assay": "The compound was tested in vitro for antibacterial activity against constitutively erythromycin resistant Staphylococcus aureus 011CB20."}, "Streptococcus pneumoniae [12]": {"test_system": "Streptococcus pneumoniae", "assay": "The compound was tested in vitro for antibacterial activity against constitutively erythromycin resistant Streptococcus pneumoniae 030PW23c"}, "Streptococcus pneumoniae [13]": {"test_system": "Streptococcus pneumoniae", "assay": "The compound was tested in vitro for antibacterial activity against constitutively erythromycin resistant Streptococcus pneumoniae 030CR18c"}, "Haemophilus influenzae [14]": {"test_system": "Haemophilus influenzae", "assay": "The compound was tested in vitro for antibacterial activity against Haemophilus influenza 351HT3"}, "Streptococcus pneumoniae [15]": {"test_system": "Streptococcus pneumoniae", "assay": "The compound was tested in vitro for antibacterial activity against inducibly erythromycin resistant Streptococcus pneumoniae 030J5i"}, "Staphylococcus aureus [16]": {"test_system": "Staphylococcus aureus", "assay": "The compound was tested in vitro for antibacterial activity against erythromycin susceptible Staphylococcus aureus 011UC4"}, "Staphylococcus aureus [17]": {"test_system": "Staphylococcus aureus", "assay": "The compound was tested in vitro for antibacterial activity against inducibly erythromycin resistant Staphylococcus aureus 011GO25i"}, "Escherichia coli [18]": {"test_system": "Escherichia coli", "assay": "The compound was tested in vitro for antibacterial activity against Escherichia coli 250 UCS"}, "Streptococcus pneumoniae [19]": {"test_system": "Streptococcus pneumoniae", "assay": "The compound was tested in vitro for antibacterial activity against erythromycin susceptible Streptococcus pneumoniae 032UC1"}, "Streptococcus pyogenes [20]": {"test_system": "Streptococcus pyogenes", "assay": "The compound was tested in vitro for antibacterial activity against erythromycin susceptible Streptococcus pyogenes 02A1UC1"}, "Streptococcus pneumoniae [21]": {"test_system": "Streptococcus pneumoniae", "assay": "The compound was tested in vitro for antibacterial activity against constitutively erythromycin resistant Streptococcus pneumoniae 030SJ1"}, "Mus musculus [22]": {"test_system": "Mus musculus", "assay": "(§1) The compound was tested in vivo for antibacterial activity against AmpR beta(+) Haemophilus influenza 351RD7 in mice after oral administration"}, "Staphylococcus aureus [23]": {"test_system": "Staphylococcus aureus", "assay": "The compound was tested in vitro for antibacterial activity against constitutively erythromycin resistant Staphylococcus aureus 011CB20"}, "Mus musculus [24]": {"test_system": "Mus musculus", "assay": "The compound was tested in vivo for antibacterial activity against erythromycin susceptible Streptococcus pneumoniae 032UC1 in mice after oral administration"}, "Mus musculus [25]": {"test_system": "Mus musculus", "assay": "(§2) The compound was tested in vivo for antibacterial activity against AmpR beta(-) Haemophilus influenza 351TO19 in mice after oral administration"}, "Mus musculus [26]": {"test_system": "Mus musculus", "assay": "The compound was tested in vivo for antibacterial activity against constitutively erythromycin resistant Streptococcus pneumoniae 030MV2 in mice after oral administration"}, "Mus musculus [27]": {"test_system": "Mus musculus", "assay": "(§3) The compound was tested in vivo for antibacterial activity against Haemophilus influenza 351GR1 in mice after oral administration"}, "Mus musculus [28]": {"test_system": "Mus musculus", "assay": "The compound was tested in vivo for antibacterial activity against inducibly erythromycin resistant Staphylococcus aureus 011GO3 in mice after oral administration"}, "Mus musculus [29]": {"test_system": "Mus musculus", "assay": "The compound was tested in vivo for antibacterial activity against constitutively erythromycin resistant Streptococcus pneumoniae 030SJ1 in mice after oral administration"}, "Mus musculus [30]": {"test_system": "Mus musculus", "assay": "The compound was tested in vivo for antibacterial activity against constitutively erythromycin resistant Streptococcus pneumoniae 030Cr29 in mice after oral administration"}, "Mus musculus [31]": {"test_system": "Mus musculus", "assay": "The compound was tested in vivo for antibacterial activity against inducibly erythromycin resistant Streptococcus pneumoniae 030RO1 in mice after oral administration"}, "Mus musculus [32]": {"test_system": "Mus musculus", "assay": "The compound was tested in vivo for antibacterial activity against erythromycin susceptible Staphylococcus aureus 011UC4 in mice after oral administration"}, "Mus musculus [33]": {"test_system": "Mus musculus", "assay": "The compound was tested in vivo for antibacterial activity against erythromycin susceptible Streptococcus pyogenes 02A1UC1 in mice after oral administration"}, "Haemophilus influenzae [34]": {"test_system": "Haemophilus influenzae", "assay": "as §1"}, "Haemophilus influenzae [35]": {"test_system": "Haemophilus influenzae", "assay": "as §2"}, "Haemophilus influenzae [36]": {"test_system": "Haemophilus influenzae", "assay": "as §3"}}}
{"smiles": "CC[C@H]1OC(=O)[C@H](C)C(=O)[C@H](C)[C@@H](O[C@@H]2O[C@H](C)C[C@H](N(C)C)[C@H]2O)[C@](C)(OC)C[C@@H](C)C(=O)[C@H](C)[C@H]2N(CCCCn3ccc4ccccc43)C(=O)O[C@]12C", "values": [{"measurement": "MIC", "setting": "Staphylococcus aureus [1]", "value": 0.04, "unit": "µg/mL"}, {"measurement": "MIC", "setting": "Haemophilus influenzae [2]", "value": 0.6, "unit": "µg/mL"}, {"measurement": "MIC", "setting": "Streptococcus pyogenes [3]", "value": 0.02, "unit": "µg/mL"}, {"measurement": "MIC", "setting": "Streptococcus pneumoniae [4]", "value": 0.02, "unit": "µg/mL"}, {"measurement": "MIC", "setting": "Streptococcus pneumoniae [5]", "value": 2.5, "unit": "µg/mL"}, {"measurement": "MIC", "setting": "Streptococcus pneumoniae [6]", "value": 2.5, "unit": "µg/mL"}, {"measurement": "MIC", "setting": "Escherichia coli [7]", "value": 10, "unit": "µg/mL"}, {"measurement": "MIC", "setting": "Staphylococcus aureus [8]", "value": 0.08, "unit": "µg/mL"}, {"measurement": "MIC", "setting": "Streptococcus pneumoniae [9]", "value": 0.08, "unit": "µg/mL"}, {"measurement": "MIC", "setting": "Streptococcus pneumoniae [10]", "value": 2.5, "unit": "µg/mL"}, {"measurement": "MIC", "setting": "Staphylococcus aureus [11]", "value": 40, "unit": "µg/mL"}]}
{"smiles": "CC[C@H]1OC(=O)[C@H](C)C(=O)[C@H](C)[C@@H](O[C@@H]2O[C@H](C)C[C@H](N(C)C)[C@H]2OC(C)=O)[C@](C)(OC)C[C@@H](C)C(=O)/C(C)=C/[C@]1(C)OC(=O)n1ccnc1", "values": [{"measurement": "MIC", "setting": "Streptococcus pneumoniae [12]", "value": 10, "unit": "µg/mL"}, {"measurement": "MIC", "setting": "Streptococcus pneumoniae [13]", "value": 10, "unit": "µg/mL"}, {"measurement": "MIC", "setting": "Haemophilus influenzae [14]", "value": 2.5, "unit": "µg/mL"}, {"measurement": "MIC", "setting": "Streptococcus pneumoniae [15]", "value": 0.08, "unit": "µg/mL"}, {"measurement": "MIC", "setting": "Staphylococcus aureus [16]", "value": 0.08, "unit": "µg/mL"}, {"measurement": "MIC", "setting": "Staphylococcus aureus [17]", "value": 0.15, "unit": "µg/mL"}, {"measurement": "MIC", "setting": "Escherichia coli [18]", "value": 20, "unit": "µg/mL"}, {"measurement": "MIC", "setting": "Streptococcus pneumoniae [19]", "value": 0.02, "unit": "µg/mL"}, {"measurement": "MIC", "setting": "Streptococcus pyogenes [20]", "value": 0.02, "unit": "µg/mL"}, {"measurement": "MIC", "setting": "Streptococcus pneumoniae [21]", "value": 10, "unit": "µg/mL"}, {"measurement": "MIC", "setting": "Staphylococcus aureus [11]", "value": 40, "unit": "µg/mL"}]}
{"smiles": "CC[C@H]1OC(=O)[C@H](C)[C@@H](O[C@H]2C[C@@](C)(OC)[C@@H](O)[C@H](C)O2)[C@H](C)[C@@H](O[C@@H]2O[C@H](C)C[C@H](N(C)C)[C@H]2O)[C@](C)(O)C[C@@H](C)CN(C)[C@H](C)[C@@H](O)[C@]1(C)O", "note": "[AZITHROMYCIN]", "values": [{"measurement": "MIC", "setting": "Streptococcus pneumoniae [12]", "value": 40, "unit": "µg/mL"}, {"measurement": "MIC", "setting": "Streptococcus pneumoniae [13]", "value": 40, "unit": "µg/mL"}, {"measurement": "ED50", "setting": "Mus musculus [22]", "value": 94, "unit": "mg/kg"}, {"measurement": "MIC", "setting": "Staphylococcus aureus [23]", "value": 40, "unit": "µg/mL"}, {"measurement": "ED50", "setting": "Mus musculus [24]", "value": 6, "unit": "mg/kg"}, {"measurement": "ED50", "setting": "Mus musculus [25]", "value": 145, "unit": "mg/kg"}, {"measurement": "ED50", "setting": "Mus musculus [26]", "value": "> 50", "unit": "mg/kg"}, {"measurement": "ED50", "setting": "Mus musculus [27]", "value": 56, "unit": "mg/kg"}, {"measurement": "MIC", "setting": "Haemophilus influenzae [14]", "value": 1.2, "unit": "µg/mL"}, {"measurement": "MIC", "setting": "Streptococcus pneumoniae [15]", "value": 40, "unit": "µg/mL"}, {"measurement": "MIC", "setting": "Staphylococcus aureus [16]", "value": 0.3, "unit": "µg/mL"}, {"measurement": "ED50", "setting": "Mus musculus [28]", "value": "> 100", "unit": "mg/kg"}, {"measurement": "MIC", "setting": "Staphylococcus aureus [17]", "value": 40, "unit": "µg/mL"}, {"measurement": "ED50", "setting": "Mus musculus [29]", "value": "> 50", "unit": "mg/kg"}, {"measurement": "ED50", "setting": "Mus musculus [30]", "value": "> 50", "unit": "mg/kg"}, {"measurement": "MIC", "setting": "Escherichia coli [18]", "value": 20, "unit": "µg/mL"}, {"measurement": "MIC", "setting": "Streptococcus pneumoniae [19]", "value": 0.15, "unit": "µg/mL"}, {"measurement": "ED50", "setting": "Mus musculus [31]", "value": "> 50", "unit": "mg/kg"}, {"measurement": "ED50", "setting": "Mus musculus [32]", "value": 30, "unit": "mg/kg"}, {"measurement": "ED50", "setting": "Mus musculus [33]", "value": 16, "unit": "mg/kg"}, {"measurement": "MIC", "setting": "Streptococcus pyogenes [20]", "value": 0.6, "unit": "µg/mL"}, {"measurement": "MIC", "setting": "Streptococcus pneumoniae [21]", "value": 40, "unit": "µg/mL"}]}
{"smiles": "CC1(C)S[C@@H]2[C@H](NC(=O)[C@H](N)c3ccccc3)C(=O)N2[C@H]1C(=O)O", "note": "[AMPICILLIN]", "values": [{"measurement": "ED50", "setting": "Haemophilus influenzae [34]", "value": "> 600", "unit": "mg/kg"}, {"measurement": "ED50", "setting": "Haemophilus influenzae [35]", "value": 39, "unit": "mg/kg"}, {"measurement": "ED50", "setting": "Haemophilus influenzae [36]", "value": 5.5, "unit": "mg/kg"}]}
{"smiles": "CC[C@H]1OC(=O)[C@H](C)C(=O)[C@H](C)[C@@H](O[C@@H]2O[C@H](C)C[C@H](N(C)C)[C@H]2O)[C@](C)(OC)C[C@@H](C)C(=O)[C@H](C)[C@H]2N(CCCCn3cnc(-c4ccccc4)n3)C(=O)O[C@]12C", "values": [{"measurement": "MIC", "setting": "Staphylococcus aureus [1]", "value": 0.02, "unit": "µg/mL"}, {"measurement": "MIC", "setting": "Haemophilus influenzae [2]", "value": 1.2, "unit": "µg/mL"}, {"measurement": "MIC", "setting": "Streptococcus pyogenes [3]", "value": 0.02, "unit": "µg/mL"}, {"measurement": "MIC", "setting": "Streptococcus pneumoniae [4]", "value": 0.04, "unit": "µg/mL"}, {"measurement": "MIC", "setting": "Streptococcus pneumoniae [5]", "value": 1.2, "unit": "µg/mL"}, {"measurement": "MIC", "setting": "Streptococcus pneumoniae [6]", "value": 1.2, "unit": "µg/mL"}, {"measurement": "MIC", "setting": "Escherichia coli [7]", "value": 40, "unit": "µg/mL"}, {"measurement": "MIC", "setting": "Staphylococcus aureus [8]", "value": 0.15, "unit": "µg/mL"}, {"measurement": "MIC", "setting": "Streptococcus pneumoniae [9]", "value": 0.3, "unit": "µg/mL"}, {"measurement": "MIC", "setting": "Streptococcus pneumoniae [10]", "value": 0.6, "unit": "µg/mL"}, {"measurement": "MIC", "setting": "Staphylococcus aureus [11]", "value": 40, "unit": "µg/mL"}]}
